5 compounds from article PMC9779606, “Synthesis, Structural Characterization and Biological Activity Evaluation of Novel Cu(II) Complexes with 3-(trifluoromethyl)phenylthiourea Derivatives” (International Journal of Molecular Sciences, 2022) can be followed below.

Assay [1] relates to PC3 (metastatic prostate cancer). Briefly: Cytotoxicity, MTT assay. It counts as cell-based, human. To be noted: 72 h, mean SD. As to the method: (§1) MTT assay was performed as previously described. Experiments were repeated three times. […] Decreased relative MTT level means decreased cell viability.
Assay [2] deals with SW480 (primary colon cancer). Briefly: Cytotoxicity, MTT assay. Format: cell-based, human. The settings on record: 72 h, mean SD. As to the method:
as §1

Assay [3] has as its system SW620 (metastatic colon cancer). The assay can be described thus: Cytotoxicity, MTT assay. It counts as cell-based, human. The settings on record: 72 h, mean SD. As to the method:
as §1
On the technique in general: Tetrazolium dyes change colour on reduction, which living cells bring about.

Assay [4] deals with HaCaT (immortalized human keratinocytes). The assay can be described thus: Cytotoxicity, MTT assay. It counts as cell-based. To be noted: normal cells, 72 h, mean SD. As to the method:
as §1

Assay [5] concerns methicillin-resistant Staphylococci (MRSA, MRSE). To be noted: for MIC level against hospital staphylococcal strains: all hospital staphylococcal strains, Table 5.
In assay [6] the test system is S. aureus 498. Briefly: MIC, hospital methicillin-resistant strains (MRSA). The settings on record: hospital MRSA strain S. aureus 498.
Assay [7] relates to S. aureus 573. Briefly: MIC, hospital methicillin-resistant strains (MRSA). The settings on record: hospital MRSA strain S. aureus 573.
The test system of assay [8] is S. aureus NCTC 4163. The assay can be described thus: MIC, twofold serial microdilution, standard strains. To be noted: S. aureus NCTC 4163, standard strain.
For assay [9], the system named is S. aureus 586. The assay can be described thus: MIC, hospital methicillin-resistant strains (MRSA). The settings on record: hospital MRSA strain S. aureus 586.
Assay [10] relates to S. epidermidis 423. Briefly: MIC, hospital methicillin-resistant strains (MRSE). The settings on record: hospital MRSE strain S. epidermidis 423.
Assay [11] has as its system S. aureus ATCC 25923. Briefly: MIC, twofold serial microdilution, standard strains. The settings on record: S. aureus ATCC 25923, standard strain.
For assay [12], the system named is S. epidermidis 424. Briefly: MIC, hospital methicillin-resistant strains (MRSE). The settings on record: hospital MRSE strain S. epidermidis 424.
In assay [13] the test system is S. epidermidis 471. Briefly: MIC, hospital methicillin-resistant strains (MRSE). The settings on record: hospital MRSE strain S. epidermidis 471.
For assay [14], the system named is S. epidermidis 510. Briefly: MIC, hospital methicillin-resistant strains (MRSE). To be noted: hospital MRSE strain S. epidermidis 510.
In assay [15] the test system is S. epidermidis 511. Briefly: MIC, hospital methicillin-resistant strains (MRSE). The settings on record: hospital MRSE strain S. epidermidis 511.
Assay [16] has as its system S. epidermidis 433. The assay can be described thus: MIC, hospital methicillin-resistant strains (MRSE). To be noted: hospital MRSE strain S. epidermidis 433.
Assay [17] deals with S. epidermidis 435. Briefly: MIC, hospital methicillin-resistant strains (MRSE). To be noted: hospital MRSE strain S. epidermidis 435.
For assay [18], the system named is S. epidermidis 438. Briefly: MIC, hospital methicillin-resistant strains (MRSE). To be noted: hospital MRSE strain S. epidermidis 438.
Assay [19] concerns S. aureus ATCC 29213. The assay can be described thus: MIC, twofold serial microdilution, standard strains. To be noted: S. aureus ATCC 29213, standard strain. (Broth dilution looks for growth in wells or tubes with falling amounts of substance.)
Assay [20] has as its system E. coli ATCC 25922. The assay is described as above. The settings on record: E. coli ATCC 25922, standard strain.
For assay [21], the system named is P. aeruginosa ATCC 27853. The assay is described as above. The settings on record: P. aeruginosa ATCC 27853, standard strain.
In assay [22] the test system is staphylococcal isolates. Briefly: MIC, standard staphylococcal strains. The settings on record: text summary of Table 4.
Assay [23] has as its target T1, S. aureus topoisomerase IV (Staphylococcus aureus, UniProt P0C1S7+P0C1U9).
T1 construct: purchased Inspiralis, Norwich, UK
Briefly: S. aureus topoisomerase IV decatenation assay. Format: biochemical. To be noted: kDNA decatenation, 30 min at 37 °C.
Method: The assay was performed using a S. aureus topoisomerase IV decantation kit (Inspiralis, Norwich, UK). Kinetoplast DNA (kDNA) was the substrate for topoisomerase IV. Firstly, 1 U of topoisomerase IV decatenated 200 ng of kDNA, in the dedicated decantation assay buffer supplied by the manufacturer. […] The reactions were terminated by adding an equal volume of STEB buffer (40% sucrose, 100 mM Tris-HCl pH 8, 1 mM EDTA, 0.5 mg/mL bromophenol blue), followed by extraction with 1 volume of chloroform/isoamyl alcohol (24:1). Then, 20 µL of the aqueous phase of each sample was loaded onto a 1% agarose gel. Electrophoresis was conducted in Tris-acetate-EDTA buffer for 1.5 h at 80 V. Gels were stained with ethidium bromide and visualized under UV light in a transilluminator (ChemiDoc MP, Bio-Rad, Hercules, CA, USA).

The target in assay [24] is T2, S. aureus DNA gyrase (Staphylococcus aureus, UniProt P0A0K8+P20831).
T2 construct: purchased Inspiralis, Norwich, UK
The assay can be described thus: S. aureus DNA gyrase supercoiling assay. Format: biochemical. The settings on record: pBR322 supercoiling, 30 min at 37 °C.
Method: The assay was performed using a S. aureus DNA Gyrase Supercoiling kit (Inspiralis, Norwich, UK). The activity of DNA topoisomerase II was determined by measuring the conversion of relaxed pBR322 DNA to its supercoiled form. The reaction mixture contained 500 ng of mMpBR322 plasmid DNA and 1 U of enzyme and different concentrations of the compound in a total reaction volume of 30 µL. The mixture was incubated for 30 min at 37 °C. The reactions were terminated by adding an equal volume of STEB buffer (40% sucrose, 100 mM Tris-HCl pH 8, 1 mM EDTA, 0.5 mg/mL bromophenol blue), followed by extraction with 1 volume of chloroform/isoamyl alcohol (24:1). Then, 20 µL of the aqueous phase of each sample was loaded onto a 1% agarose gel. Electrophoresis was conducted in Tris-acetate-EDTA buffer for 3 h at 50 V. Gels were stained with ethidium bromide and visualized under UV light in a transilluminator (ChemiDoc MP, Bio-Rad, Hercules, CA, USA).

In assay [25] the test system is SW480, SW620, and PC3. Briefly: Cytotoxicity, MTT assay, all cancer cell lines. It counts as cell-based, human. The settings on record: 72 h, read-out: IC50 towards all investigated cancer cells. As to the method: as §1

Structures are written as SMILES. Where two headings read alike, the source gives them in different places. Bounds are passed on as bounds.

T2 sequence (P20831 whole entry): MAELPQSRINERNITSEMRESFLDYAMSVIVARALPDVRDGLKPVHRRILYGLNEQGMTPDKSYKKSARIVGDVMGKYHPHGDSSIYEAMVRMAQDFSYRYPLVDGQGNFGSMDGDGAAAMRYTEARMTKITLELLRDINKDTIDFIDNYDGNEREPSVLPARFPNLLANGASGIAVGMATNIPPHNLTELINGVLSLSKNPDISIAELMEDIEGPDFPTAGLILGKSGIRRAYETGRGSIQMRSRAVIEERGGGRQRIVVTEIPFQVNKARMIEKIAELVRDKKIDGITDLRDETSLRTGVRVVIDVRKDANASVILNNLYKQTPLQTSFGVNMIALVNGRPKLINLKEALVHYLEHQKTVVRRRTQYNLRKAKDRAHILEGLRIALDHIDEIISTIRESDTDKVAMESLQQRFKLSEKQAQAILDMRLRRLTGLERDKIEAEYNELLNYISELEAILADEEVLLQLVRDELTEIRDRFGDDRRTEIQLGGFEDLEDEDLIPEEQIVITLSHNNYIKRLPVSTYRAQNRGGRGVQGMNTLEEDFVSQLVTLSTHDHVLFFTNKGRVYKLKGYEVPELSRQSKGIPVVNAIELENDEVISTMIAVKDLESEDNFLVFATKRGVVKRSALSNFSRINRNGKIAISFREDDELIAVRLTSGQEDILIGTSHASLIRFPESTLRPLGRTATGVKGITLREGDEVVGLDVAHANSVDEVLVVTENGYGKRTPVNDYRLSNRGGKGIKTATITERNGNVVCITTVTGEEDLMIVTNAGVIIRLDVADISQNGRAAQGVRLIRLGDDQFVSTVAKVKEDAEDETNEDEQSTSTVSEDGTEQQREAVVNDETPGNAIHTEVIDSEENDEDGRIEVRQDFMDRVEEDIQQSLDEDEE
T2 sequence (P0A0K8 whole entry): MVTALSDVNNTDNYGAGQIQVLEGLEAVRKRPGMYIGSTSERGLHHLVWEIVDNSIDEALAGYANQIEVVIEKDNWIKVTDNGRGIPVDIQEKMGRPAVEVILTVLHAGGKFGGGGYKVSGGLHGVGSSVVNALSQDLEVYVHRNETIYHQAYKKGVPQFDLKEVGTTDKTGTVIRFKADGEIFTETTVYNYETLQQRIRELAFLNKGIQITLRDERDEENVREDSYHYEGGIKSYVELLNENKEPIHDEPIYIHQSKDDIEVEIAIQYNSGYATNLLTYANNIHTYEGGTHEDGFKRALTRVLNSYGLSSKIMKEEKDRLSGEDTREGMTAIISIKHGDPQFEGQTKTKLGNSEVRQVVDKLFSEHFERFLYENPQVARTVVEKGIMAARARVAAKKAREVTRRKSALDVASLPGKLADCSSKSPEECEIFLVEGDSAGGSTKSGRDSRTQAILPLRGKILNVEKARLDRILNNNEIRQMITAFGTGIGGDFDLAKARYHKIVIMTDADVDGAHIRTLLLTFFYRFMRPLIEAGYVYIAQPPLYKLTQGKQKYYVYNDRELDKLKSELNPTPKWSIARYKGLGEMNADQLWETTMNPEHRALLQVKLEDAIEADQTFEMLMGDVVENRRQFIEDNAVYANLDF
T1 sequence (P0C1S7 whole entry): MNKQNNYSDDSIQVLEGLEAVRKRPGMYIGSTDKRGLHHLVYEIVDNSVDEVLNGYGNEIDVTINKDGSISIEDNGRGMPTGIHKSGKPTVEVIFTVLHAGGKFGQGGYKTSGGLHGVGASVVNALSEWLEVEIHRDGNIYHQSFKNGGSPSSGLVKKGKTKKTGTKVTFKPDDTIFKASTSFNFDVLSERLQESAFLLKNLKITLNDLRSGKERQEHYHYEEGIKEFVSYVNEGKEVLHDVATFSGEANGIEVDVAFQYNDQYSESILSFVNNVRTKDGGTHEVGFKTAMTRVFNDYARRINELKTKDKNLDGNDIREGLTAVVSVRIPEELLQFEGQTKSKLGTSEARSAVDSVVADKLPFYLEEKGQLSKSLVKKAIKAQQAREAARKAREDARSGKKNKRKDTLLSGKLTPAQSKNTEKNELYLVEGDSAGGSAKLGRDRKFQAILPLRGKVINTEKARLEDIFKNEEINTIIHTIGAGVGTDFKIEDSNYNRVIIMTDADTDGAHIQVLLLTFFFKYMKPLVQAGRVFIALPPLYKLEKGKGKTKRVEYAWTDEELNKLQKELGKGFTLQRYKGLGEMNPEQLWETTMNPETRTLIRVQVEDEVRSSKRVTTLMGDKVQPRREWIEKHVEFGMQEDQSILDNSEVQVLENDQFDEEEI
T1 sequence (P0C1U9 whole entry): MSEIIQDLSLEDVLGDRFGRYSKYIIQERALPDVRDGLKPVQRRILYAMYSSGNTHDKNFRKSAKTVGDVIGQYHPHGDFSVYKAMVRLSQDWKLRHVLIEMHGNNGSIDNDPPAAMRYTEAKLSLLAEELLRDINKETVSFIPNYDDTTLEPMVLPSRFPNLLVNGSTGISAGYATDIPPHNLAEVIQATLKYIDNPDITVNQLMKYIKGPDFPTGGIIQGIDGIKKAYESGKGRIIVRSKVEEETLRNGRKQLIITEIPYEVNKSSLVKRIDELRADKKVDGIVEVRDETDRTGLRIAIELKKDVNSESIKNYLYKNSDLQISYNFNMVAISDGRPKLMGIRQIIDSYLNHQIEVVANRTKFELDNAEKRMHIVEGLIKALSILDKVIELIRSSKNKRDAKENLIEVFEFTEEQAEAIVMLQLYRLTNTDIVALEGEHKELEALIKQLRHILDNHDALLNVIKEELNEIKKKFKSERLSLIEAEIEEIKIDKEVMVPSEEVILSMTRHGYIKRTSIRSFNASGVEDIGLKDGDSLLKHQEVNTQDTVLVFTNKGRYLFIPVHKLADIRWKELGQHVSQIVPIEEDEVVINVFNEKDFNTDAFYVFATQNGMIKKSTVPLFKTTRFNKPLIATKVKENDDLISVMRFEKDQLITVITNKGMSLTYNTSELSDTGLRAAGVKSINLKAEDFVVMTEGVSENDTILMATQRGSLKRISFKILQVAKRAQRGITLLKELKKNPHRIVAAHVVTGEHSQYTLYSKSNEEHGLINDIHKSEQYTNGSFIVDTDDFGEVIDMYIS

Regarding `CC(NC(=S)[N-]c1cccc(C(F)(F)F)c1)c1ccccc1.CC(NC(=S)[N-]c1cccc(C(F)(F)F)c1)c1ccccc1.[Cu+2]` (racemic) [Cu2, Copper(II) Complex with 1-(1-phenylethyl)-3-[3-(trifluoromethyl)phenyl]thiourea], the IC50 (in general, the concentration needed to halve the response being measured) in assay [1] is 89.7 ± 1.9 µM; in assay [2] it was 41.6 ± 4.3 µM; in assay [3], 23.3 µM; in [4] it was 220 ± 3.4 µM. The “MIC level against hospital staphylococcal strains” value (“MIC level” for short) in assay [5] fell in the range of 8 to 128 µg/mL. For the same compound, the minimum inhibitory concentration (MIC) (in general, the lowest concentration that inhibits growth of the organism) in assay [6] was found to be 8 µg/mL; in assay [7], 8 µg/mL; in [8], 32 µg/mL; in assay [9], 8 µg/mL; in assay [10], 16 µg/mL; in assay [11], 32 µg/mL. Moreover, the MIC in [12], in assay [13], in assay [14], in assay [15], in [16] and in assay [17] was 16 µg/mL in each case. The minimum inhibitory concentration (MIC) in [18] is 16 µg/mL; in [19], 32 µg/mL; in [20] it was at least 256 µg/mL; in assay [21] it was at least 256 µg/mL.

Turning to `FC(F)(F)c1cccc([N-]C(=S)NCCc2ccccc2)c1.FC(F)(F)c1cccc([N-]C(=S)NCCc2ccccc2)c1.O.[Cu+2]` [Cu1, Copper(II) Complex with 1-(2-phenylethyl)-3-[3-(trifluoromethyl)phenyl]thiourea], the IC50 in assay [1] was found to be 100 ± 3.6 µM; in [2], 68.7 ± 3.4 µM; in assay [3], 62.6 ± 4.9 µM; in assay [4], 421 ± 5.2 µM. In addition, the “MIC level” value in [5] fell in the range of 8 to 128 µg/mL. In addition, the MIC in assay [6], in assay [7], in [8], in [9], in assay [10] and in [11] was 64 µg/mL each time. Moreover, the minimum inhibitory concentration (MIC) came out at 128 µg/mL in assay [12]; 64 µg/mL in assay [13]; 64 µg/mL in assay [14]; 128 µg/mL in assay [15]; 64 µg/mL in assay [16]; 64 µg/mL in [17]. The MIC in [18] is 128 µg/mL; in assay [19] it was 64 µg/mL; in assay [20] it was at least 256 µg/mL; in assay [21], 128 µg/mL.

For `FC(F)(F)c1cccc([N-]C(=S)NCc2ccccc2)c1.FC(F)(F)c1cccc([N-]C(=S)NCc2ccccc2)c1.[Cu+2]` [Cu3, Copper(II) Complex with 1-benzyl-3-[3-(trifluoromethyl)phenyl]thiourea], the IC50 stood at 49.4 ± 2.4 µM in [1], 38.3 ± 3.1 µM in assay [2], 44.8 ± 5.6 µM in assay [3] and 65 ± 4.7 µM in assay [4]. Besides, the “MIC level” value in assay [5] is 8 to 128 µg/mL. Besides, the MIC in assay [6], in assay [7], in assay [8], in [9], in [10] and in assay [11] was 64 µg/mL each time. For the same compound, the minimal inhibitory concentration (MIC) in [12], in assay [13], in [14], in assay [15], in [16] and in [17] was 64 µg/mL throughout. Further, the minimum inhibitory concentration (MIC) in assay [18] was 64 µg/mL; in [19] it was 64 µg/mL; in assay [20], at least 256 µg/mL; in assay [21] it was at least 256 µg/mL.

On to `FC(F)(F)c1cccc([N-]C(=S)Nc2cccc(Br)c2)c1.FC(F)(F)c1cccc([N-]C(=S)Nc2cccc(Br)c2)c1.[Cu+2]` [Cu4, Copper(II) Complex with 1-(3-bromophenyl)-3-[3-(trifluoromethyl)phenyl] thiourea], for which the IC50 in assay [1] is 70.1 ± 5.3 µM; in [2] it was 89.8 ± 2.6 µM; in assay [3] it was 69.1 ± 1.8 µM; in [4], 388 ± 4.4 µM. Moreover, the “MIC level” value in assay [5] is 8 to 128 µg/mL. The MIC in assay [6], in assay [7], in assay [8], in [9], in [10] and in assay [11] was 8 µg/mL throughout. Moreover, the MIC in assay [12], in assay [13], in assay [14], in assay [15], in [16] and in assay [17] was 8 µg/mL each time. Besides, the MIC is 8 µg/mL in assay [18], 8 µg/mL in [19], 128 µg/mL in assay [20] and 128 µg/mL in assay [21]. In addition, the “MIC, staphylococcal isolates” value in assay [22] came to 8 µg/mL.

With `O.O=[N+]([O-])c1cc(NC(=S)[N-]c2cccc(C(F)(F)F)c2)ccc1Cl.O=[N+]([O-])c1cc(NC(=S)[N-]c2cccc(C(F)(F)F)c2)ccc1Cl.[Cu+2]` [Cu5, Copper(II) Complex with 1-(4-chloro-3-nitrophenyl)-3-[3-(trifluoromethyl)phenyl]thiourea], in assay [23], the “IC50 ± S.E.M. for Topo IV” value amounted to 6.20 ± 0.50 µg/mL. In addition, in [24], the “IC50 ± S.E.M. for Gyrase” value turned out to be 16.80 ± 0.75 µg/mL. Also, the IC50 in assay [1] is 11.7 ± 0.9 µM; in [2] it was 14.8 ± 1.2 µM; in [3], 19.5 ± 1.3 µM; in assay [4], 134 ± 2.9 µM; in assay [25], 11.7 to 19.5 µM. Besides, the “MIC, methicillin-resistant Staphylococci” value is listed as 2 µg/mL in assay [5] (19 strains (above half) of tested hospital Staphylococci); 4 µg/mL in assay [5] (S. aureus 537, 585, and 586 strains and half of the S. epidermidis isolates). The MIC in assay [6] worked out at 2 µg/mL; in assay [7], 2 µg/mL; in assay [8] it was 4 µg/mL; in [9], 4 µg/mL; in assay [10], 4 µg/mL; in assay [11], 4 µg/mL. For the same compound, the minimum inhibitory concentration (MIC) in assay [12] turned out to be 4 µg/mL; in [13] it was 4 µg/mL; in [14] it was 4 µg/mL; in assay [15], 4 µg/mL; in assay [16] it was 2 µg/mL; in assay [17], 2 µg/mL. In addition, the MIC in assay [18] was 2 µg/mL; in [19], 4 µg/mL; in assay [20] it was 128 µg/mL; in assay [21], over 256 µg/mL. Besides, the “MIC, staphylococcal isolates” value in assay [22] stood at 4 µg/mL.
